Reference: patent US20260374739A1, “SMALL MOLECULAR WEIGHT CHEMICAL COMPOUND TO ANTAGONIZE EPH-EPHRIN TETRAMERIZATION AND INHIBIT BIDIRECTIONAL SIGNALING” (THE BOARD OF REGENTS OF THE UNIVERSITY OF TEXAS SYSTEM, priority 2022, published 2026)
Read-outs that look alike come from different tables or passages of the source.

Experiments:
EphB1-EphrinB2 (EB2) = target: T1, EphB1-EphrinB2 (EB2) (Rattus norvegicus, UniProt P09759); assay: Alpha assay EphB1-EphrinB2 (EB2) interaction; assay type: binding, mouse EB2
T1 construct: rat EphB1-Fc residues 18-538; mouse EB2-His residues 18-232; purchased R&D Systems (EphB1-Fc); Sino Biologicals (EB2-His)
T1 sequence (P09759 18-538): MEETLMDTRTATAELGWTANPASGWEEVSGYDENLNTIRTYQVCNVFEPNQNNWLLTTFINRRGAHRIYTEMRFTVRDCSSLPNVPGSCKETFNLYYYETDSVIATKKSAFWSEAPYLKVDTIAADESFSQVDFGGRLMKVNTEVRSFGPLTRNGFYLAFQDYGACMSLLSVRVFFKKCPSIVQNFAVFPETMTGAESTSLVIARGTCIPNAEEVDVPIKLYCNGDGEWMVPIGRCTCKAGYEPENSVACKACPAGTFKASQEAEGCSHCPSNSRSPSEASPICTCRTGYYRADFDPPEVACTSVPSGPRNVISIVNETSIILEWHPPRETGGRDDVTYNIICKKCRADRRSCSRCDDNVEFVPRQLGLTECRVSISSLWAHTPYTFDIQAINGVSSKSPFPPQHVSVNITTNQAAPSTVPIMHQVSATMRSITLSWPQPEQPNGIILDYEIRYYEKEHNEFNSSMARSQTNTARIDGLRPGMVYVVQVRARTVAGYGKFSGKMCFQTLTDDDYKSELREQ
Excerpt: A chemiluminescent AlphaScreen™ bead-based proximity assay suitable for HTS was developed to measure the receptor-ligand interaction formed between EphB1 and EphrinB2 (EB2) ectodomains (FIG. 3). Here, when singlet oxygen molecules generated by high energy irradiation of donor beads travel over a constrained distance to excite acceptor beads, a chemiluminescent signal is generated and detected. If an analyte interferes with the EphB1-EB2 protein-protein interaction, close proximity of the donor and acceptor beads will be disrupted resulting in diminished or lost energy transfer and reduced acceptor bead emission.
Test was conducted in the Alpha assay, to see if purified soluble Reelin (previously shown to bind EphB1 ectodomain) can interfere with EphB1-EB2 binding.
The EphB1-EB2 screen was conducted using 0.8 nM of each protein, 50 ng beads per well, and assessed at 5 μM a library of −240,000 small, drug-like chemicals. […] They were also tested in a counter screen designed to identify non-specific compounds. Here, a single-protein Alpha assay was set up using a dual-tagged EphB2-His-Fc ectodomain protein that can bind both donor and acceptor beads to bring them into proximity. If a selected compound simply absorbs the chemiluminescent signal or interferes with bead function/binding or protein folding, it was hypothesized that it would also reduce signals in the single protein assay, and would consider it a false positive.

EphrinB2-EphB1 = target: T2, EphrinB2-EphB1 (Homo sapiens, UniProt P54762); assay: Octet 80 sec association/500 sec dissociation, immobilized human EphrinB2-Fc binding to soluble human EphB1-His; conditions: immobilized human EphrinB2, 25 nM soluble human EphB1
T2 construct: soluble human EphB1-His, EphB2-His, and EphB4-His ectodomains; commercially available human EphrinB1-Fc (EB1), EphrinB2-Fc (EB2), and EphrinB3-Fc (EB3) ectodomain proteins; purchased
T2 sequence (P54762 18-540 limits assumed): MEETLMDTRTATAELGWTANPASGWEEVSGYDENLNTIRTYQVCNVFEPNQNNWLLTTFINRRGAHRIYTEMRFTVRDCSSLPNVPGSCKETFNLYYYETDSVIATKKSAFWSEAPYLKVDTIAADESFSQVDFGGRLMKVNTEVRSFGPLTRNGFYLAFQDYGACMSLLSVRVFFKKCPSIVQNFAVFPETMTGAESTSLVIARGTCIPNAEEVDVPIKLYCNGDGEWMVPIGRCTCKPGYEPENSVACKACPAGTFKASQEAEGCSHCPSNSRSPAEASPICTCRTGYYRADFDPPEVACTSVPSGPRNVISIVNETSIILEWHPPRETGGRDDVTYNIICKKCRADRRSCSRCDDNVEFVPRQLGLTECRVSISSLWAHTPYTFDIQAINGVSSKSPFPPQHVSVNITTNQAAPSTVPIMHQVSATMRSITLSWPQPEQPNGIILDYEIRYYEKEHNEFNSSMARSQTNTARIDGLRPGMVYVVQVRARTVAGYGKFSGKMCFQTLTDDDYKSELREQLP
In short: (§1)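 EphrinB2-Fc captured on AHC biosensors, then soluble His-tagged EphB ectodomain (25 nM for % inhibition runs) associated 80 s and dissociated 500 s in PBS, 0.05% Tween-20, 1% DMSO ± compound. Compounds tested at 0.1–3.2 μM with a 10 μM max standard; IC50 from AUC of full traces or at 75 s and 135 s.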

EphrinB2-EphB2 [1] = target: T3, EphrinB2-EphB2 (Homo sapiens, UniProt P29323); assay: Octet 80 sec association/500 sec dissociation, immobilized human EphrinB2-Fc binding to soluble human EphB2-His; conditions: immobilized human EphrinB2, 25 nM soluble human EphB2
T3 construct: soluble human EphB1-His, EphB2-His, and EphB4-His ectodomains; commercially available human EphrinB1-Fc (EB1), EphrinB2-Fc (EB2), and EphrinB3-Fc (EB3) ectodomain proteins; purchased
T3 sequence (P29323 19-543 limits assumed): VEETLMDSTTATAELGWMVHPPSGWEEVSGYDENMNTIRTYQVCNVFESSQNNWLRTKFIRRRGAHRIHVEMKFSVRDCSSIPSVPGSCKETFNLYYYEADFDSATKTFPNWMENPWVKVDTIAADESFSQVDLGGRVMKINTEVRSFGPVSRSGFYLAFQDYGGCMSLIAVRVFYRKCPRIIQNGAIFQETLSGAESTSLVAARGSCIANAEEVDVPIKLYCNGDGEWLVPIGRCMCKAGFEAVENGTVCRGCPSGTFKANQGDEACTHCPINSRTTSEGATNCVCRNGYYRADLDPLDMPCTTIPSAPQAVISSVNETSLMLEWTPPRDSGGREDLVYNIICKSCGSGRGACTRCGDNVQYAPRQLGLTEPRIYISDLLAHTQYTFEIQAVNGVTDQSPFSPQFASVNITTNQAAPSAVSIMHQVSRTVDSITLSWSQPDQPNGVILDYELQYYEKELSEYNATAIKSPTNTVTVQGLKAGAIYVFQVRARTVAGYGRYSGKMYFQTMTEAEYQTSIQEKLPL
In short: as §1

EphrinB2-EphB4 = target: T4, EphrinB2-EphB4 (Homo sapiens, UniProt P54760); assay: Octet 80 sec association/500 sec dissociation, immobilized human EphrinB2-Fc binding to soluble human EphB4-His; conditions: immobilized human EphrinB2, 25 nM soluble human EphB4
T4 construct: soluble human EphB1-His, EphB2-His, and EphB4-His ectodomains; commercially available human EphrinB1-Fc (EB1), EphrinB2-Fc (EB2), and EphrinB3-Fc (EB3) ectodomain proteins; purchased
T4 sequence (P54760 16-539 limits assumed): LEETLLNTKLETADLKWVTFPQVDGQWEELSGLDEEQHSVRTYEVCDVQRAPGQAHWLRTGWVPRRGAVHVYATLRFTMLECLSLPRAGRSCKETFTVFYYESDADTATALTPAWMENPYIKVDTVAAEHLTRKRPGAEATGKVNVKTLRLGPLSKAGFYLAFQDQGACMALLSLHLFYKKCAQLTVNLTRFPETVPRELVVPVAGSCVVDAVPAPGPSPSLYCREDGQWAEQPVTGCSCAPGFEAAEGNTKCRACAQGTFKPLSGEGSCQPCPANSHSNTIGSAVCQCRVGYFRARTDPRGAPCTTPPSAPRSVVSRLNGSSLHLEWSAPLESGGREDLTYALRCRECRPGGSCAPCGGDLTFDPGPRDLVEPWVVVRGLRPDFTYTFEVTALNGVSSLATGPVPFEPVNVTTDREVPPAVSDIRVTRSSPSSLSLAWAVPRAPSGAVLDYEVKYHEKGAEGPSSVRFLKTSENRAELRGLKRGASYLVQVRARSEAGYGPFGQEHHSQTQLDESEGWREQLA
In short: as §1

EphrinB2-EphB2 [2] = target: T3, EphrinB2-EphB2; assay: Octet tetramerization inhibition, immobilized human EphrinB2 binding to 50 nM soluble human EphB2; conditions: EphrinB2-EphB2
human EphrinB3 = assay: Octet binding kinetics, EphB to immobilized human EphrinB3; conditions: 2:1 fit
Description: (§2) Studies were conducted to confirm that A20 chemicals can effectively target the human Eph/Ephrin proteins. Octet system was used to first characterize the biophysical interactions of the human B class Eph and Ephrin proteins, and then was tested to assess how A20 may disrupt the interactions. Since the human and rodent proteins are highly conserved, and essentially identical, with EphB2 sharing 99.5% identity between human and mouse, with only 5 of ~1,000 amino acids different, any species-specific differences were not anticipated. Therefore, commercially available human EphrinB1-Fc (EB1), EphrinB2-Fc (EB2), and EphrinB3-Fc (EB3) ectodomain proteins were sparsely immobilized onto biosensors and then exposed to 50 nM of soluble human EphB1-His, EphB2-His, and EphB4-His ectodomains for 800 sec association and 1,000 sec dissociation steps with a total of nine different interactions analyzed. In the absence of A20 chemical, the immobilized human EphrinB proteins bound to their appropriate human EphB target proteins; with EphrinB1 only bound EphB1 and EphB2, EphrinB2 bound all three EphB1, EphB2, and EphB4, and EphrinB3 only bound EphB1 and EphB2 (FIG. 19A-19B).
(§3) While the binding kinetics described above for the various human EphB-EphrinB interactions are complicated and show clear differences, all are extremely high affinity interactions with KD values in the low nanomolar to picomolar range (Table 2). Octet software allows for detailed biophysical analysis of the sensorgram data and first attempts to fit the information to equations that follow rather standard binding characteristics, most typified by either a classic 1:1 binding type interaction (like formation of a simple receptor-ligand dimer) or something more complex/heterologous involving 2:1 binding type interactions (like Eph-Ephrin dimer and tetramer). Based on the information contained in the sensorgram run under analysis, the Octet software will attempt to draw curves to fit the data to 1:1 and 2:1 binding equations. […] The resulting curve fits are not always perfect, especially for such complex interactions as the Eph/Ephrin system. As such, while the EphB2-EB2 and EphB4-EB2 data fit a 2:1 curve fairly well, the EphB1-EB2 interaction fits neither 1:1 or 2:1 well and the R2 values of this interaction reflects this. The interaction of EB1 with its two target proteins is more divergent. […] The EphB1-EB3 and EphB2-EB3 interactions are like that for EphB1-EB1, clear 1:1 curve fits with a slow gradual on rate of association followed by no off rate in dissociation.

human EphrinB2 = assay: Octet binding kinetics, EphB to immobilized human EphrinB2
Description: as §2, §3

CC1CCN(Cc2cc(Br)c(O)c3ncccc23)CC1 [Compound 66, 7-bromo-5-((4-methylpiperidin-1-yl)methyl)quinolin-8-ol, reference compound]
antagonism of EphB1-EB2 (EphB1-EphrinB2 (EB2)): did not pass through the Alpha confirmation and counter screens

Reelin: purified soluble Reelin (previously shown to bind EphB1 ectodomain)
antagonism of EphB1-EB2 (EphB1-EphrinB2 (EB2)): almost complete inhibition at 200 nM

O=S1(=O)CCN(Cc2cc(Br)c(O)c3ncccc23)CC1 [Compound 17, 4-((7-bromo-8-hydroxyquinolin-1-ium-5-yl)methyl)thiomorpholin-4-ium 1,1-dioxide chloride]
EphB1 Inhibition Percent, Inhibition of Association ONLY (EphrinB2-EphB1; at 3.2 μM and 80 seconds): 33.0% | EphB1 Inhibition Percent, Inhibition of Association-Dissociation (EphrinB2-EphB1; at 3.2 μM and 580 seconds): 48.0% | EphB2 Inhibition Percent, Inhibition of Association ONLY (EphrinB2-EphB2 [1]; at 3.2 μM and 80 seconds): 59.5% | EphB2 Inhibition Percent, Inhibition of Association-Dissociation (EphrinB2-EphB2 [1]; at 3.2 μM and 580 seconds): 74.5% | EphB4 Inhibition Percent, Inhibition of Association ONLY (EphrinB2-EphB4; at 3.2 μM and 80 seconds): 18.1% | EphB4 Inhibition Percent, Inhibition of Association-Dissociation (EphrinB2-EphB4; at 3.2 μM and 580 seconds): 37.2% | IC50 (EphrinB2-EphB2 [2]; Absolute AUC/IC50, Table A): 1480 nM | IC50 (EphrinB2-EphB2 [2]; Absolute Association IC50 (300 sec), Table A): 1500 nM | IC50 (EphrinB2-EphB2 [2]; Absolute Dissociation IC50 (450 sec), Table A): 1260 nM | IC50 (EphrinB2-EphB2 [2]; Relative AUC/IC50, Table A, compound 7: association only): 810 nM | IC50 (EphrinB2-EphB2 [2]; Relative Association IC50 (300 sec), Table A): 890 nM | IC50 (EphrinB2-EphB2 [2]; Relative Dissociation IC50 (450 sec), Table A): 780 nM

B1: EphB1: soluble human EphB1-His ectodomain (protein, UniProt P54762 18-540, looked up)
extracellular domain: T2 sequence (P54762 18-540 limits assumed)
modifications: extracellular domain His tag
notes: soluble human EphB1-His ectodomain
Kd (human EphrinB3; in parentheses R2 value, read-out: KD2): 0.0012 nM | Kd (human EphrinB3; read-out: KD1): 0.0014 nM | Kd (human EphrinB2; 2:1 fit, in parentheses R2 value, read-out: KD2): 27 nM | Kd (human EphrinB2; 2:1 fit, read-out: KD1): < 0.001 nM | Kd (human EphrinB2; in parentheses R2 value, read-out: KD): 4.3 nM
